Measurements taken from patent US12122750B2, “AT2R antagonists and uses thereof” (Eli Lilly and Company, priority 2022, dated 2024).

target: recombinant human angiotensin-II receptor subtype 2 (hAT2R) (Homo sapiens (Human), UniProt P50052); assay: Competitive radioligand binding assay (SPA), hAT2R HEK293 membranes; details: [125I]-Tyr4-Angiotensin-II, read-out: AT2R Ki
Experimental: Compound Solubilization Test and reference compounds were received as dry powder reagents, weighed, and solubilized in 100% DMSO to generate a working stock concentration of 10 mM. Membrane Preparation Protocol (hAT2R HEK293 and rAT2R HEK293) hAT2R membranes were prepared from human embryonic kidney (HEK293) cells which were stably transfected with recombinant human angiotensin-II receptor subtype 2 (hAT2R). Cells from the stable cell lines were expanded in tissue culture flasks to generate a large population of cells; cell pellet (>1 gm), and these cell pellets were stored frozen prior to initiating this membrane isolation procedure for each receptor isoform. Frozen cell pellets were thawed in ice-cold homogenization/resuspension buffer (50 mM Tris-HCl, pH 7.5) containing one Complete© protease inhibitor tablet with EDTA (Roche Diagnostics) per 50 mL buffer, and cell pellet was resuspended at a ratio of 10 mL homogenization buffer to gram of starting cell pellet. Cell suspension was homogenized with an overhead motor-driven Teflon-glass homogenizer using 15 to 20 strokes, followed by centrifugation at 1100×g for 10 minutes at 4° C. The supernatant was saved on ice, pellets were homogenized as before, and centrifuged at 1100×g for 10 minutes at 4° C. Both supernatants were combined and subsequently centrifuged at 35,000×g for 60 minutes at 4° C. The final centrifugation pellet (pellet 2) containing the isolated membranes was resuspended in buffer (4 to 5 mL/g of starting cell paste) containing protease inhibitors and quick frozen in liquid nitrogen prior to storage at -80° C. Protein concentration was determined using a BCA kit (ThermoScientific, Inc.) with bovine serum albumin (BSA) as standard. […] The assays were performed with a scintillation proximity assay (SPA) method using polyvinyltoluene (PVT) wheat germ agglutinin-coupled SPA beads (Perkin Elmer Cat. #RPNQ0001). Assay buffer containing BSA (50 mM Tris-HCl, pH 7.5, 150 mM NaCl, 0.1% w/v fatty-acid free BSA) was used for preparing radioligand, membrane and SPA bead reagent dilution to working stock concentrations. Reference control and test compounds were diluted to obtain ten-point concentration response curves using a four-fold serial dilution protocol onto assay plates, dispensed acoustically from DMSO stock using automated ECHO instrument technology (Labcyte, Inc.). Concentration response curves were routinely generated with the highest final assay concentration for the reference angiotensin-II control at 50 nM, and the highest final assay concentration for the test compounds at 50 μM. […] The hAT2R membrane was combined with PVT-WGA SPA beads to obtain a final assay concentration of 0.25 μg/well hAT2R membrane+0.1 mg/well PVT-WGA SPA bead. And the hAT1R membrane PVT-WGA SPA bead final concentrations was 0.5 μg/well hAT1R membrane+0.1 mg/well PVT-WGA SPA bead. […] For all assays, radioligand addition was followed by the addition of membrane-SPA bead mixture, i.e., the hAT2R membrane-SPA bead mixture (30 μL), the rAT2R membrane-SPA bead mixture, or the AT1R membrane-SPA bead mixture (30 μL) into the assay plate. All dispensing steps were added using a Multiflo FX (Biotek, Inc.) bulk dispensing instrument. After reagent addition steps, assay plates were sealed, and plate contents mixed for one minute on a benchtop micro-plate shaker. Following a 10-hour incubation at room temperature to allow for bead settling and radioligand binding, bound radioactivity was quantitated using a Microbeta Trilux scintillation counter (Perkin Elmer) and expressed as counts per minute (CPM). The unlabeled angiotensin-II control was included on each plate as an experimental assay reference. […] Data Analysis Procedures Compounds were tested in a 10-point concentration response curve (CRC) format, with each plate containing the positive control angiotensin-II positive reference compound, and experimental compounds.

Chain of recombinant human angiotensin-II receptor subtype 2 (hAT2R) (P50052 whole entry): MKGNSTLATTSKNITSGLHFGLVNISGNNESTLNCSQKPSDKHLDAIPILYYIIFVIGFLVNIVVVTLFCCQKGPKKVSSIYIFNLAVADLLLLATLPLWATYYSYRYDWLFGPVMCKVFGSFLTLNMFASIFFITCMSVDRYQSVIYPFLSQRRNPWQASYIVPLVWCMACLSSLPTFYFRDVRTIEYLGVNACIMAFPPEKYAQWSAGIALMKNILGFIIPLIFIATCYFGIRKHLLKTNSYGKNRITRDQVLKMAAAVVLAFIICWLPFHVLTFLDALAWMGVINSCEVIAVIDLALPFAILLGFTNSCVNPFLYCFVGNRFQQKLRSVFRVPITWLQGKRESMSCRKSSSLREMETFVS

| Ki [nM] | SMILES |
| --- | --- |
| 2.19 | CC(C1CC1)N(C(=O)CC1(C(=O)O)CCN(C(=O)N(C)c2ccc(F)cc2)CC1)c1ccccc1 (single isomer, unassigned) [Example 43A, 4-[2-[N-(1-cyclopropylethyl)anilino]-2-oxo-ethyl]-1-[(4-fluorophenyl)-methyl-carbamoyl]piperidine-4-carboxylic acid] |
| 0.4 | CN(C(=O)N1CCC(CC(=O)N(c2cccc(F)c2)C2CCCCC2)(C(=O)O)CC1)c1ccc(F)cc1 [compound 27, 4-[2-(N-cyclohexyl-3-fluoro-anilino)-2-oxo-ethyl]-1-[(4-fluorophenyl)-methyl-carbamoyl]piperidine-4-carboxylic acid] |
| 2.93 | CC(C)c1ccc(C(=O)N2CCC(CC(=O)N(c3ccccc3)C3CCCC(F)(F)C3)(C(=O)O)CC2)c(F)c1 (racemic) [Example 68, 4-[2-(N-(3,3-difluorocyclohexyl)anilino)-2-oxo-ethyl]-1-(2-fluoro-4-isopropyl-benzoyl)piperidine-4-carboxylic acid] |
| 0.383 | O=C(N1CCC(CC(=O)N(c2ccccc2)C2CCCC(F)(F)C2)(C(=O)O)CC1)N1CCc2ccc(F)cc21 (single isomer, unassigned) [Example 72B, 4-[2-(N-(3,3-difluorocyclohexyl)anilino)-2-oxo-ethyl]-1-(6-fluoroindoline-1-carbonyl)piperidine-4-carboxylic acid] |
| 20.1 | CC(C1CC1)N(C(=O)CC1(C(=O)O)CCN(C(=O)N(C)c2ccc(F)cc2)CC1)c1ccccc1 (single isomer, unassigned) [Example 43B, 4-[2-[N-(1-cyclopropylethyl)anilino]-2-oxo-ethyl]-1-[(4-fluorophenyl)-methyl-carbamoyl]piperidine-4-carboxylic acid] |
| 3.02 | CN(C(=O)N1CCC(CC(=O)N(c2ccccc2)C2CCC(F)(F)CC2)(C(=O)O)CC1)c1ccc(F)cc1 [Example 8, 4-[2-(N-(4,4-difluorocyclohexyl)anilino)-2-oxo-ethyl]-1-[(4-fluorophenyl)-methyl-carbamoyl]piperidine-4-carboxylic acid] |
| 8.89 | CN(C(=O)N1CCC(CC(=O)N(c2ccccc2)C2CCCOC2)(C(=O)O)CC1)c1ccc(F)cc1 (single isomer, unassigned) [Example 41A, 1-[(4-fluorophenyl)-methyl-carbamoyl]-4-[2-oxo-2-(N-tetrahydropyran-3-ylanilino)ethyl]piperidine-4-carboxylic acid] |
| 10.8 | O=C(N1CCC(CC(=O)N(c2ccccc2)C2CCCC(F)(F)C2)(C(=O)O)CC1)N1CCc2ccccc21 (single isomer, unassigned) [Example 35A, 4-[2-(N-(3,3-difluorocyclohexyl)anilino)-2-oxo-ethyl]-1-(indoline-1-carbonyl)piperidine-4-carboxylic acid] |
| 9.24 | CC(C)c1ccc(C(=O)N2CCC(CC(=O)N(c3ccccc3)C3CCCC(F)(F)C3)(C(=O)O)CC2)cc1 (racemic) [Example 69, 4-[2-(N-(3,3-difluorocyclohexyl)anilino)-2-oxo-ethyl]-1-(4-isopropylbenzoyl)piperidine-4-carboxylic acid] |
| 0.521 | CN(C(=O)N1CCC(CC(=O)N(c2ccccc2)C2CCCCC2)(C(=O)O)CC1)c1ccccc1F [Example 12, 4-[2-(N-cyclohexylanilino)-2-oxo-ethyl]-1-[(2-fluorophenyl)-methyl-carbamoyl]piperidine-4-carboxylic acid] |
| 4.23 | O=C(N1CCC(CC(=O)N(c2ccccc2F)c2ccccc2F)(C(=O)O)CC1)N1CCc2ccccc21 [Example 59, 4-[2-(2-fluoro-N-(2-fluorophenyl)anilino)-2-oxo-ethyl]-1-(indoline-1-carbonyl)piperidine-4-carboxylic acid] |
| 4.43 | CC(CC(F)F)N(C(=O)CC1(C(=O)O)CCN(C(=O)N(C)c2ccc(F)cc2)CC1)c1ccccc1 (racemic) [Example 36, 4-[2-(N-(3,3-difluoro-1-methyl-propyl)anilino)-2-oxo-ethyl]-1-[(4-fluorophenyl)-methyl-carbamoyl]piperidine-4-carboxylic acid] |
